Assay results published in patent US20230093861A1, “RAPAMYCIN ANALOGS AS MTOR INHIBITORS” (Revolution Medicines, Inc., priority 2017, published 2023).
Like-named read-outs stand apart in the source and are kept apart here.

Key:
P-Akt (S473) = assay: Cell based AlphaLISA assay, inhibition of P-Akt (S473) (mTORC2 substrate phosphorylation) in MDA-MB-468 cells; settings: Homo sapiens, AlphaLISA, two to four hours at 37° C., read-out: pIC50 for Inhibition of mTORC1 and mTORC2 Substrate Phosphorylation, p-AKT 1/2/3 -(S473) (converted)
Summary of the method: (§1)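 Readout is the Alpha signal for each phosphoprotein, measured in duplicate from cell lysates with a SureFire Ultra homogeneous assay. IC50 values derive from inhibitor concentration-response curves fitted by normalized regression against controls.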

P-4E-BP1 (T37/46) = assay: Cell based AlphaLISA assay, inhibition of P-4E-BP1 (T37/46) (mTORC1 substrate phosphorylation) in MDA-MB-468 cells; settings: Homo sapiens, AlphaLISA, two to four hours at 37° C., read-out: pIC50 for Inhibition of mTORC1 and mTORC2 Substrate Phosphorylation, P-4E-BP1-(T37/46) (converted)
Summary of the method: as §1

P-P70S6K (T389) = assay: Cell based AlphaLISA assay, inhibition of P-P70S6K (T389) (mTORC1 substrate phosphorylation) in MDA-MB-468 cells; settings: Homo sapiens, 4 h, AlphaLISA, two to four hours at 37° C., read-out: pIC50 for Inhibition of mTORC1 and mTORC2 Substrate Phosphorylation, P-P70S6K-(T389) (converted)
Summary of the method: as §1

SMILES	IC50 (P-Akt (S473); 4 h) [nM]	IC50 (P-4E-BP1 (T37/46); 4 h) [nM]	IC50 (P-P70S6K (T389)) [nM]	IC50 (P-Akt (S473); MDA-MB-468, 4 h) [nM]	IC50 (P-4E-BP1 (T37/46); MDA-MB-468, 4 h) [nM]
CO[C@H]1C[C@@H]2CC[C@@H](C)[C@@](O)(O2)C(=O)C(=O)N2CCCC[C@H]2C(=O)O[C@H]([C@H](C)C[C@@H]2CC[C@@H](OCCCCc3cn(CCOCCOCCOCCOCCOCCOCCOCCOCCC(=O)NCCCCn4nc(-c5cnc6[nH]ccc6c5)c5c(N)ncnc54)nn3)[C@H](OC)C2)CC(=O)[C@H](C)/C=C(\C)[C@@H](O)[C@@H](OC)C(=O)[C@H](C)C[C@H](C)/C=C/C=C/C=C/1C [Example 69]	3.16 to 31.6	< 3.16	< 1	–	–
CO[C@H]1C[C@@H]2CC[C@@H](C)[C@@](O)(O2)C(=O)C(=O)N2CCCC[C@H]2C(=O)O[C@H]([C@H](C)C[C@@H]2CC[C@H](n3cc(COC(=O)NCCOCCOCCOCCOCCC(=O)NCCOCCOCCOCCOCCC(=O)NCCCCn4nc(-c5ccc6oc(N)nc6c5)c5c(N)ncnc54)nn3)[C@H](OC)C2)CC(=O)[C@H](C)/C=C(\C)[C@@H](O)[C@@H](OC)C(=O)[C@H](C)C[C@H](C)/C=C/C=C/C=C/1C [Example 125]	–	–	1 to 10	3.16 to 31.6	3.16 to 31.6
CO[C@H]1C[C@@H]2CC[C@@H](C)[C@@](O)(O2)C(=O)C(=O)N2CCCC[C@H]2C(=O)O[C@H]([C@H](C)C[C@@H]2CC[C@@H](OCCCCc3cn(CCOCCOCCOCCOCCOCCOCCOCCOCCC(=O)N4CCN(c5cc(-n6nc(-c7ccc8oc(N)nc8c7)c7c(N)ncnc76)ncn5)CC4)nn3)[C@H](OC)C2)CC(=O)[C@H](C)/C=C(\C)[C@@H](O)[C@@H](OC)C(=O)[C@H](C)C[C@H](C)/C=C/C=C/C=C/1C [Example 95]	–	–	< 1	3.16 to 31.6	< 3.16
CO[C@H]1C[C@@H]2CC[C@@H](C)[C@@](O)(O2)C(=O)C(=O)N2CCCC[C@H]2C(=O)O[C@H]([C@H](C)C[C@@H]2CC[C@H](n3cc(-c4cccc(C(=O)NCCOCCOCCOCCC(=O)NCCOCCOCCC(=O)NCCCCn5nc(-c6ccc7oc(N)nc7c6)c6c(N)ncnc65)c4)nn3)[C@H](OC)C2)CC(=O)[C@H](C)/C=C(\C)[C@@H](O)[C@@H](OC)C(=O)[C@H](C)C[C@H](C)/C=C/C=C/C=C/1C [Example 136]	–	–	1 to 10	31.6 to 1000	3.16 to 31.6
CO[C@H]1C[C@@H]2CC[C@@H](C)[C@@](O)(O2)C(=O)C(=O)N2CCCC[C@H]2C(=O)O[C@H]([C@H](C)C[C@@H]2CC[C@@H](O)[C@H](OC)C2)C[C@@H](OC)[C@H](C)/C=C(\C)[C@@H](O)[C@@H](OC)C(=NOCc2cn(CCOCCOCCOCCOCCOCCOCCC(=O)NCCCCn3nc(-c4ccc5oc(N)nc5c4)c4c(N)ncnc43)nn2)[C@H](C)C[C@H](C)/C=C/C=C/C=C/1C [Example 13]	–	–	1 to 10	31.6 to 1000	3.16 to 31.6
COC(=O)N[C@H]1C[C@@H]2CC[C@@H](C)[C@@](O)(O2)C(=O)C(=O)N2CCCC[C@H]2C(=O)O[C@H]([C@H](C)C[C@@H]2CC[C@@H](OCCCCc3cn(CCOCCOCCOCCOCCOCCOCCOCCOCCC(=O)N4CCN(c5ccc(-n6c(=O)n(C)c7cnc8ccc(-c9ccc(OC)nc9)cc8c76)cc5C(F)(F)F)CC4)nn3)[C@H](OC)C2)CC(=O)[C@H](C)/C=C(\C)[C@@H](O)[C@@H](OC)C(=O)[C@H](C)CC(C)/C=C/C=C/C=C/1C (stereo partly drawn) [Example 72]	–	–	< 1	< 3.16	< 3.16
CCO[C@@H]1C[C@@H]([C@H](C)C[C@@H]2CC[C@H](n3cc(COC(=O)NCCOCCOCCOCCC(=O)NCCOCCOCCOCCC(=O)NCCCCn4nc(-c5cc6cc(O)ccc6[nH]5)c5c(N)ncnc54)nn3)[C@H](OC)C2)OC(=O)[C@@H]2CCCCN2C(=O)C(=O)[C@]2(O)O[C@@H](CC[C@H]2C)C[C@H](OC)/C(C)=C/C=C/C=C/[C@@H](C)C[C@@H](C)C(=O)[C@H](OC)[C@H](O)/C(C)=C/[C@H]1C [Example 150]	–	–	10 to 1000	> 1000	31.6 to 1000
CO[C@H]1C[C@@H]2CC[C@@H](C)[C@@](O)(O2)C(=O)C(=O)N2CCCC[C@H]2C(=O)O[C@H]([C@H](C)C[C@@H]2CC[C@H](n3nncc3-c3cccc(-c4cnc(N5CCN(Cc6cn(CCOCCOCCOCCC(=O)NCCCCn7nc(-c8ccc9oc(N)nc9c8)c8c(N)ncnc87)nn6)C(CO)C5)nc4)c3)[C@H](OC)C2)CC(=O)[C@H](C)/C=C(\C)[C@@H](O)[C@@H](OC)C(=O)[C@H](C)C[C@H](C)/C=C/C=C/C=C/1C (stereo partly drawn) [Example 34]	–	–	1 to 10	31.6 to 1000	3.16 to 31.6
CO[C@H]1C[C@@H]2CC[C@@H](C)[C@@](O)(O2)C(=O)C(=O)N2CCCC[C@H]2C(=O)O[C@H]([C@H](C)C[C@@H]2CC[C@H](n3cc(COC(=O)NCCOCCOCCOCCOCCC(=O)NCc4cnc(N5CCN(c6ncc(C(=O)NCCCCn7nc(-c8cc9cc(O)ccc9[nH]8)c8c(N)ncnc87)cn6)CC5)nc4)nn3)[C@H](OC)C2)CC(=O)[C@H](C)/C=C(\C)[C@@H](O)[C@@H](OC)C(=O)[C@H](C)C[C@H](C)/C=C/C=C/C=C/1C [Example 186]	–	–	< 1	31.6 to 1000	3.16 to 31.6
CO[C@H]1C[C@@H]2CC[C@@H](C)[C@@](O)(O2)C(=O)C(=O)N2CCCC[C@H]2C(=O)O[C@H]([C@H](C)C[C@@H]2CC[C@H](n3cc(-c4cnc(N5CCN(c6ncc(C(=O)NCCOCCOCCOCCOCCC(=O)NCCCCn7nc(-c8cc9cc(O)ccc9[nH]8)c8c(N)ncnc87)cn6)CC5)nc4)nn3)[C@H](OC)C2)CC(=O)[C@H](C)/C=C(\C)[C@@H](O)[C@@H](OC)C(=O)[C@H](C)C[C@H](C)/C=C/C=C/C=C/1C [Example 116]	–	–	< 1	> 1000	3.16 to 31.6
CO[C@H]1C[C@@H]2CC[C@@H](C)[C@@](O)(O2)C(=O)C(=O)N2CCCC[C@H]2C(=O)O[C@H]([C@H](C)C[C@@H]2CC[C@H](n3cc(COC(=O)NCCOCCOCCOCCC(=O)NCCOCCOCCOCCC(=O)NCCCCn4nc(-c5cc6cc(O)ccc6[nH]5)c5c(N)ncnc54)nn3)[C@H](OC)C2)C/C(=N/OC(C)(C)C)[C@H](C)/C=C(\C)[C@@H](O)[C@@H](OC)C(=O)[C@H](C)C[C@H](C)/C=C/C=C/C=C/1C [Example 161]	–	–	> 1000	> 1000	> 1000
COC(=O)N[C@H]1C[C@@H]2CC[C@@H](C)[C@@](O)(O2)C(=O)C(=O)N2CCCC[C@H]2C(=O)O[C@H]([C@H](C)C[C@@H]2CC[C@@H](OCCCCc3cn(CCOCCOCCOCCOCCOCCOCCOCCOCCC(=O)NCCCCn4nc(-c5cnc6[nH]ccc6c5)c5c(N)ncnc54)nn3)[C@H](OC)C2)CC(=O)[C@H](C)/C=C(\C)[C@@H](O)[C@@H](OC)C(=O)[C@H](C)C[C@H](C)/C=C/C=C/C=C/1C [Example 81]	–	–	1 to 10	31.6 to 1000	3.16 to 31.6
CO[C@H]1C[C@@H]2CC[C@@H](C)[C@@](O)(O2)C(=O)C(=O)N2CCCC[C@H]2C(=O)O[C@H]([C@H](C)C[C@@H]2CC[C@H](n3cc(COC(=O)NCCOCCOCCOCCC(=O)NCCOCCOCCC(=O)NCCCCn4nc(-c5ccc6oc(N)nc6c5)c5c(N)ncnc54)nn3)[C@H](OC)C2)C[C@@H](OC)[C@H](C)/C=C(\C)[C@@H](O)[C@@H](OC)C(=O)[C@H](C)C[C@H](C)/C=C/C=C/C=C/1C [Example 143]	–	–	1 to 10	> 1000	31.6 to 1000
CO[C@H]1C[C@@H]2CC[C@@H](C)[C@@](O)(O2)C(=O)C(=O)N2CCCC[C@H]2C(=O)O[C@H]([C@H](C)C[C@@H]2CC[C@@H](OCCCCc3cn(CCOCCOCCOCCOCCOCCOCCC(=O)NCCCCn4nc(-c5cnc6[nH]ccc6c5)c5c(N)ncnc54)nn3)[C@H](OC)C2)CC(=O)[C@H](C)/C=C(\C)[C@@H](O)[C@@H](OC)C(=O)[C@H](C)C[C@H](C)/C=C/C=C/C=C/1C [Example 68]	31.6 to 1000	3.16 to 31.6	< 1	–	–
CO[C@H]1C[C@@H]2CC[C@@H](C)[C@@](O)(O2)C(=O)C(=O)N2CCCC[C@H]2C(=O)O[C@H]([C@H](C)C[C@@H]2CC[C@@H](OCCCCc3cn(CCOCCOCCOCCOCCOCCOCCOCCOCCC(=O)NCCCCn4nc(-c5ccc6oc(N)nc6c5)c5c(N)ncnc54)nn3)[C@H](OC)C2)C[C@@H](OC)[C@H](C)/C=C(\C)[C@@H](O)[C@@H](OC)C(=O)[C@H](C)C[C@H](C)/C=C/C=C/C=C/1C [Example 77]	–	–	< 1	3.16 to 31.6	< 3.16
CO[C@H]1C[C@@H]2CC[C@@H](C)[C@@](O)(O2)C(=O)C(=O)N2CCCC[C@H]2C(=O)O[C@H]([C@H](C)C[C@@H]2CC[C@H](OCCCCc3cn(CCOCCOCCOCCOCCOCCOCCC(=O)NCCCCn4nc(-c5cccc(C(=O)NC6=NCCS6)c5)c5c(N)ncnc54)nn3)[C@H](OC)C2)CC(=O)[C@H](C)/C=C(\C)[C@@H](O)[C@@H](OC)C(=O)[C@H](C)C[C@H](C)/C=C/C=C/C=C/1C (stereo in doubt) [Example 41]	–	–	< 1	> 1000	3.16 to 31.6
